Data from US9920042B2, “Compounds for use in the treatment of mycobacterial infections” (Universite de Droit et de la Sante de Lille 2, priority 2012, dated 2018).
Like-named read-outs stand apart in the source and are kept apart here.

Key:
EthR protein = EthR protein (Mycobacterium tuberculosis, UniProt P9WMC1); assay: TSA test (Thermal Shift Assay), fluorescence with Sypro Orange; type: binding, M. tuberculosis; conditions: melting temperature shift of EthR with ligand vs protein alone
[1] = system: M. tuberculosis alone or macrophages infected by M. tuberculosis; assay: Potentiation of ethionamide cell test (High Content Screening); type: cell-based; conditions: ligand concentration potentiating ten times the activity of ethionamide, ethionamide constant at 0.1 μg/mL (1/10th of its CMI99)

Sequence of EthR protein (P9WMC1 whole entry, looked up): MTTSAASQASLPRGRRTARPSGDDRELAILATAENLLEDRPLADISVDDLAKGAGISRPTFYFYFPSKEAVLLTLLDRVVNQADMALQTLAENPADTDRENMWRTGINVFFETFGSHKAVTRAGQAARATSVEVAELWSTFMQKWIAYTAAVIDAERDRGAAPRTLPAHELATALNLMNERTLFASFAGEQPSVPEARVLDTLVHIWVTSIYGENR

Row | Structure (SMILES) | ΔTm (EthR protein) [°C] | EC50 ([1]; read-out: EC50) [µM] | EC50 [1] [µM]
1 | O=C(NCCC(F)(F)F)c1ccc(-c2cscn2)cc1 [Compound 56, 4-(thiazol-4-yl)-N-(3,3,3-trifluoropropyl)benzamide] | 8.1 | 0.36 | –
2 | Cc1nc(-c2ccc(S(=O)(=O)NCC(F)(F)C(F)(F)C(F)(F)F)cc2)cs1 [Compound 28, N-(2,2,3,3,4,4,4-heptafluorobutyl)-4-(2-methylthiazol-4-yl)benzene sulfonamide] | 7.3 | – | > 2.5
3 | Cc1nc(-c2ccc(C(=O)NCCC(F)(F)F)cc2)no1 [Compound 75, 4-(5-methyl-1,2,4-oxadiazol-3-yl)-N-(3,3,3-trifluoropropyl)benzamide] | – | 0.062 | –
4 | O=C(NCCC(F)(F)F)c1ccc(C#CCNS(=O)(=O)c2ccccc2)cc1 [Compound 112, 4-(3-(phenylsulfonamido)prop-1-ynyl)-N-(3,3,3-trifluoropropyl)-benzamide] | 4.2 | 0.23 | –
5 | O=C(NCCC(F)(F)F)c1ccc(-c2nsc(CO)n2)cc1 [Compound 90, 4-(5-(hydroxymethyl)-1,2,4-thiadiazol-3-yl)-N-(3,3,3-trifluoropropyl)-benzamide] | – | 0.13 | –
6 | O=S(=O)(NCCC(F)(F)F)c1ccc(-c2nc3ccccc3s2)cc1 [Compound 42, 4-(benzo[d]thiazol-2-yl)-N-(3,3,3-trifluoropropyl)benzene sulfonamide] | – | 0.3 | –
7 | O=S(=O)(NCC#Cc1ccc(S(=O)(=O)NCCC(F)(F)F)cc1)c1ccccc1 [Compound 106, 4-(3-(phenylsulfonamido)prop-1-ynyl)-N-(3,3,3-trifluoropropyl)-benzene sulfonamide] | 3.3 | 1.8 | –
8 | Cc1noc(-c2ccc(C(=O)NCCC(F)(F)F)cc2)n1 [Compound 78, 4-(3-methyl-1,2,4-oxadiazol-5-yl)-N-(3,3,3-trifluoropropyl)benzamide] | – | 0.21 | –
9 | CC(C)(C)S(=O)(=O)Cc1nc(-c2ccc(S(=O)(=O)NCCC(F)(F)F)cc2)cs1 [Compound 39, 4-(2-(tert-butylsulfonylmethyl)thiazol-4-yl)-N-(3,3,3-trifluoropropyl)-benzene sulfonamide] | 7.3 | 0.2 | –
10 | O=C(NCCC(F)(F)F)c1ccc(-n2cc(C3CC3)nn2)cc1 [Compound 95, 4-(4-cyclopropyl-1H-1,2,3-triazol-1-yl)-N-(3,3,3-trifluoropropyl)-benzamide] | 3.5 | 1.7 | –
11 | CCCS(=O)(=O)NCc1nc(-c2ccc(C(=O)NCCC(F)(F)F)cc2)cs1 [Compound 103, 4-(2-(propylsulfonamidomethyl)thiazol-4-yl)-N-(3,3,3-trifluoropropyl)benzamide] | 6.6 | 0.32 | –
12 | CS(=O)(=O)NCC#Cc1ccc(S(=O)(=O)NCCC(F)(F)F)cc1 [Compound 108, 4-(3-(methylsulfonamido)prop-1-ynyl)-N-(3,3,3-trifluoropropyl)-benzene sulfonamide] | 1.4 | > 10 | –
13 | Cc1nc(-c2ccc(C(=O)NCCC(F)(F)F)cc2)c(Cl)s1 [Compound 64, 4-(5-chloro-2-methylthiazol-4-yl)-N-(3,3,3-trifluoropropyl)benzamide] | 8.7 | 0.35 | –
14 | CCOC(=O)Cc1nc(-c2ccc(C(=O)NCCC(F)(F)F)cc2)cs1 [Compound 52] | 10.1 | 0.19 | –
15 | O=C(NCCC(F)(F)F)c1ccc(-c2csc(CNS(=O)(=O)c3ccccc3)n2)cc1 [Compound 104, 4-(2-(phenylsulfonamidomethyl)thiazol-4-yl)-N-(3,3,3-trifluoro-propyl)benzamide] | 1.2 | 0.15 | –
16 | CC(C)CCc1cn(-c2ccc(C(=O)NCCC(F)(F)F)cc2)nn1 [Compound 93, 4-(4-isopentyl-1H-1,2,3-triazol-1-yl)-N-(3,3,3-trifluoropropyl)benzamide] | 3.8 | > 10 | –
17 | Cc1nc(-c2ccc(S(=O)(=O)NCC(F)(F)F)cc2)cs1 [Compound 26, 4-(2-methylthiazol-4-yl)-N-(2,2,2-trifluoroethyl)benzene sulfonamide] | 6.3 | 7.9 | –
18 | Cc1nnc(-c2ccc(C(=O)NCCC(F)(F)F)cc2)s1 [Compound 83, 4-(5-methyl-1,3,4-thiadiazol-2-yl)-N-(3,3,3-trifluoropropyl)benzamide] | – | 1.4 | –
19 | Cc1nnc(-c2ccc(C(=O)NCCC(F)(F)F)cc2)o1 [Compound 80, 4-(5-methyl-1,3,4-oxadiazol-2-yl)-N-(3,3,3-trifluoropropyl)benzamide] | – | 0.96 | –
20 | Cc1nc(-c2ccc(S(=O)(=O)NCCCC(F)(F)F)cc2)cs1 [Compound 27, 4-(2-methylthiazol-4-yl)-N-(4,4,4-trifluorobutyl)benzene sulfonamide] | 6.6 | > 2.5 | –

Row | Structure (SMILES) | ΔTm (EthR protein) [°C] | EC50 ([1]; read-out: EC50) [µM] | EC50 [1] [µM]
21 | O=C(NCCC(F)(F)F)c1ccc(-n2cc(CCO)nn2)cc1 [Compound 97, 4-(4-(2-hydroxyethyl)-1H-1,2,3-triazol-1-yl)-N-(3,3,3-trifluoropropyl)-benzamide] | 1.2 | 2 | –
22 | [N-]=[N+]=Nc1ccc(C(=O)NCCC(F)(F)F)cc1 [Compound 92, 4-azido-N-(3,3,3-trifluoropropyl)benzamide] | 6.0 | 1.1 | –
23 | Cc1nc(-c2ccc(C(=O)NCCC(F)(F)F)cn2)cs1 [Compound 71, 6-(2-methylthiazol-4-yl)-N-(3,3,3-trifluoropropyl)nicotinamide] | – | 1.7 | –
24 | COC(=O)Cc1nc(-c2ccc(S(=O)(=O)NCCC(F)(F)F)cc2)cs1 [Compound 33, 2-(4-(4-(N-(3,3,3-trifluoropropyl)sulfamoyl)phenyl)thiazol-2-yl)methyl acetate] | 9.5 | 0.86 | –
25 | Cc1nc(-c2ccc(C(=O)NCCC(F)(F)F)nc2)cs1 [Compound 67, 5-(2-methylthiazol-4-yl)-N-(3,3,3-trifluoropropyl)picolinamide] | – | 0.12 | –
26 | CC(C)Cc1cn(-c2ccc(C(=O)NCCC(F)(F)F)cc2)nn1 [Compound 94, 4-(4-isobutyl-1H-1,2,3-triazol-1-yl)-N-(3,3,3-trifluoropropyl)benzamide] | 4.1 | 1.2 | –
27 | CC(C)OC(=O)c1nc(-c2ccc(C(=O)NCCC(F)(F)F)cc2)cs1 [Compound 55, 4-(4-(3,3,3-trifluoropropylcarbamoyl)phenyl)thiazole-2-isopropyl carboxylate] | 8.2 | 0.73 | –
28 | CC(C)OC(=O)Cc1nc(-c2ccc(C(=O)NCCC(F)(F)F)cc2)cs1 [Compound 53, 2-(4-(4-(3,3,3-trifluoropropylcarbamoyl)phenyl)thiazol-2-yl(isopropyl acetate] | 13.2 | 0.33 | –
29 | CC(C)(C)S(=O)(=O)Cc1nc(-c2ccc(C(=O)NCCC(F)(F)F)cc2)cs1 [Compound 50, 4-(2-(tert-butylsulfonylmethyl)thiazol-4-yl)-N-(3,3,3-trifluoropropyl)-benzamide] | 9.6 | 0.041 | –
30 | CCOC(=O)c1nc(-c2ccc(C(=O)NCCC(F)(F)F)cc2)cs1 [Compound 54, 4-(4-(3,3,3-trifluoropropylcarbamoyl)phenyl)thiazole-2-ethyl carboxylate] | 9.6 | > 2.5 | –
31 | Cc1nc(-c2ccc(C(=O)NCCC(F)(F)F)cc2)co1 [Compound 72, 4-(2-methyloxazol-4-yl)-N-(3,3,3-trifluoropropyl)benzamide] | – | 0.18 | –
32 | CCOC(=O)Cc1nc(-c2ccc(S(=O)(=O)NCCC(F)(F)F)cc2)cs1 [Compound 34] | 0.15 | 0.15 | –
33 | Cc1nc(-c2ccc(C(=O)NCCC(F)(F)F)cc2)c(F)s1 [Compound 62, 4-(5-fluoro-2-mthylthiazol-4-yl)-N-(3,3,3-trifluoropropyl)benzamide] | – | 0.055 | –
34 | CC(C)CCCc1nc(-c2ccc(C(=O)NCCC(F)(F)F)cc2)cs1 [Compound 47, 4-(2-(4-methylpentyl)thiazol-4-yl)-N-(3,3,3-trifluoropropyl)benzamide] | 13.0 | 0.03 | –
35 | Cc1csc(-c2ccc(S(=O)(=O)NCCC(F)(F)F)cc2)n1 [Compound 41, 4-(4-methylthiazol-2-yl)-N-(3,3,3-trifluoropropyl)benzene sulfonamide] | 6.8 | 0.66 | –
36 | Cc1nc(-c2ccc(S(=O)(=O)NCC(F)(F)C(F)(F)F)cc2)cs1 [Compound 25, 4-(2-methylthiazol-4-yl)-N-(2,2,3,3,3-pentafluoropropyl)benzene sulfonamide] | 8.6 | > 20 | –
37 | CC(C)CCNS(=O)(=O)c1ccc(-c2csc(CC(N)=O)n2)cc1 [Compound 21, 2-(4-(4-(N-isopentylsulfamoyl)phenyl)thiazol-2-yl)acetamide] | 4.6 | 5 | –
38 | CC(C)NC(=O)Cc1nc(-c2ccc(S(=O)(=O)NCCC(F)(F)F)cc2)cs1 [Compound 36, N-isopropyl-2-(4-(4-(N-(3,3,3-trifluoropropyl)sulfamoyl)phenyl)thiazol-2-yl)acetamide] | – | 0.21 | –
39 | CC(C)CCNS(=O)(=O)c1ccc(-c2csc(CC#N)n2)cc1 [Compound 17, 4-(2-(cyanomethyl)thiazol-4-yl)-N-isopentyl benzene sulfonamide] | 5.3 | 7.9 | –
40 | Cc1nc(-c2ccc(S(=O)(=O)NCCC(C)(C)C)cc2)cs1 [Compound 23, N-(3,3-dimethylbutyl)-4-(2-methylthiazol-4-yl)benzene sulfonamide] | 2.3 | > 20 | –
